Laboratory results: patent US11412737B2, “Mixtures of beflubutamid or optically enriched forms thereof with a second herbicide” (FMC Corporation, priority 2016, dated 2022)

Key:
Assay in all cases: pre-emergence test, weed control
[1] = tested on: Common lambsquarters (CHEAL); type: in vivo, Chenopodium album; details: pre-emergent
Procedure: (§1) Test compositions containing the test compounds were diluted with water to provide the appropriate test rate concentrations.
(§2) For pre-emergence testing, four disposable fiber flats (6 inch by 10 inch) for each rate of application of each herbicide solution were filled with top soil, to which seeds of each species were planted in furrows made by a template pressed on the top of the soil. The furrows were covered with soil after planting the seed and were watered well before application of the test compounds.
(§3) Fiber flats designated for treatment were placed in a spray chamber having a static platform and a movable sprayer and the height of the spray nozzle was 10.5 inches above the soil level. Once the sprayer was calibrated using water for spray volume of 30 gallons per acre, flats were sprayed with sprayer at a speed to receive a coverage equivalent of 30 gallons per acre. The application rates are those shown in the Tables below for the individual herbicidal solutions and the herbicide compositions of this invention. The pre-emergence flats were immediately placed in the greenhouse and watered lightly after treatment. Thereafter they were regularly watered and fertilized for the duration of the test.
(§4) The control of weeds was evaluated in each experimental test at 21 for wheat and 28 days after treatment (DAT) for all species. Data were analyzed using Minitab software at 95% confidence interval. The results, shown as an average of the replications, were compared with results observed in untreated control flats in the same tests. Percent control was determined by a method similar to the 0 to 100 rating system disclosed in “Research Methods in Weed Science,” 2nd ed., B. Truelove, Ed.; Southern Weed Science Society; Auburn University, Auburn, Ala., 1977. The rating system is as follows in Table 1.

Green foxtail (SETVI) = type: in vivo, Setaria viridis; details: pre-emergent, 28 DAT, (+)-BFL >95% e.e., rate g ai/ha by row: r6 62.5, r7 125, r8 62.5, r9 125, r10 222, r11 445, r12 22.5, r13 45, r14 62.5+62.5, r15 125+62.5, r16 62.5+125, r17 125+125, r18 62.5+222, r19 125+222, r20 62.5+445, r21 125+445, r22 62.5+22.5, r23 125+22.5, r24 62.5+45, r25 125+45
Procedure: as §1, §2, §3, §4

Italian ryegrass (LOLMU) = type: in vivo, Lolium perenne. multiflorum; details: pre-emergent, 28 DAT, (+)-BFL >95% e.e.; rate g ai/ha by row: r6 62.5, r7 125, r8 62.5, r9 125, r10 222, r11 445, r12 22.5, r13 45, r14 62.5+62.5, r15 125+62.5, r16 62.5+125, r17 125+125, r18 62.5+222, r19 125+222, r20 62.5+445, r21 125+445, r22 62.5+22.5, r23 125+22.5, r24 62.5+45, r25 125+45
Procedure: as §1, §2
Fiber flats designated for treatment were placed in a spray chamber having a static platform and a movable sprayer and the height of the spray nozzle was 10.5 inches above the soil level. Once the sprayer was calibrated using water for spray volume of 30 gallons per acre, flats were sprayed with sprayer at a speed to receive a coverage equivalent of 30 gallons per acre. […]
The control of weeds was evaluated in each experimental test at 21 for wheat and 28 days after treatment (DAT) for all species. Data were analyzed using Minitab software at 95% confidence interval. […] Percent control was determined by a method similar to the 0 to 100 rating system disclosed in “Research Methods in Weed Science,” 2nd ed., B. Truelove, Ed.; Southern Weed Science Society; Auburn University, Auburn, Ala., 1977. […]

Wild oat (AVEFA) = type: in vivo, Avena fatua; details: pre-emergent, 28 DAT, (+)-BFL >95% e.e., rate g ai/ha by row: r6 62.5, r7 125, r8 62.5, r9 125, r10 222, r11 445, r12 22.5, r13 45, r14 62.5+62.5, r15 125+62.5, r16 62.5+125, r17 125+125, r18 62.5+222, r19 125+222, r20 62.5+445, r21 125+445, r22 62.5+22.5, r23 125+22.5, r24 62.5+45, r25 125+45
Procedure: as §1, §2, §3, §4

Blackgrass (ALOMY) = type: in vivo; details: pre-emergent, 28 DAT, (+)-BFL >95% e.e., rate g ai/ha by row: r6 62.5, r7 125, r8 62.5, r9 125, r10 222, r11 445, r12 22.5, r13 45, r14 62.5+62.5, r15 125+62.5, r16 62.5+125, r17 125+125, r18 62.5+222, r19 125+222, r20 62.5+445, r21 125+445, r22 62.5+22.5, r23 125+22.5, r24 62.5+45, r25 125+45
Procedure: as §1, §2, §3, §4

Yellow foxtail (SETLU) = type: in vivo; details: pre-emergent, 28 DAT, (+)-BFL >95% e.e., rate g ai/ha by row: r6 62.5, r7 125, r8 62.5, r9 125, r10 222, r11 445, r12 22.5, r13 45, r14 62.5+62.5, r15 125+62.5, r16 62.5+125, r17 125+125, r18 62.5+222, r19 125+222, r20 62.5+445, r21 125+445, r22 62.5+22.5, r23 125+22.5, r24 62.5+45, r25 125+45
Procedure: as §1, §2, §3, §4

CC[C@@H](Oc1ccc(F)c(C(F)(F)F)c1)C(=O)NCc1ccccc1 [(+)-BFL]
weed control of common lambsquarters (CHEAL) ([1]; applied alone, 28 DAT (Table 17)): low level weed control | percentage of weed control, CHEAL ([1]; 28 DAT, (+)-BFL >95% e.e., rate g ai/ha by row: r6 62.5, r7 125, r8 62.5, r9 125, r10 222, r11 445, r12 22.5, r13 45, r14 62.5+62.5, r15 125+62.5, r16 62.5+125, r17 125+125, r18 62.5+222, r19 125+222, r20 62.5+445, r21 125+445, r22 62.5+22.5, r23 125+22.5, r24 62.5+45, r25 125+45): 37% | percentage of weed control, SETVI (Green foxtail (SETVI); 62.5 g ai/ha): 7% | percentage of weed control, SETVI (Green foxtail (SETVI); 125 g ai/ha): 8% | percentage of weed control, LOLMU (Italian ryegrass (LOLMU)): 1% | percentage of weed control, AVEFA (Wild oat (AVEFA); 62.5 g ai/ha): 0% | percentage of weed control, AVEFA (Wild oat (AVEFA); 125 g ai/ha): 1% | percentage of weed control, ALOMY (Blackgrass (ALOMY); 62.5 g ai/ha): 2% | percentage of weed control, ALOMY (Blackgrass (ALOMY); 125 g ai/ha): 5% | percentage of weed control, SETLU (Yellow foxtail (SETLU); 62.5 g ai/ha): 0% | percentage of weed control, SETLU (Yellow foxtail (SETLU); 125 g ai/ha): 5%
